# Measurements taken from patent US10597388B2, “Pyridazinone herbicides” (FMC CORPORATION, priority 2014, dated 2020).
# Experiments:
# Experiment in all cases: Test E greenhouse herbicide test, pre- and postemergence
# Format in all cases: in vivo
# [1] = test system: Italian ryegrass (Lolium multiflorum)
# Method in brief: (§1)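 Scores (0–100, visual, vs controls) reflect greenhouse growth of 14 to 21 d after treatment. Application was pre-emergence to silt loam or post-emergence at the 1- to 4-leaf stage.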
# [2] = test system: arrowleaf sida (Sida rhombifolia)
# Method in brief: as §1
# [3] = test system: barnyardgrass (Echinochloa crus-galli)
# Method in brief: as §1
# corn (Zea mays) = test system: corn (Zea mays)
# Method in brief: as §1
# [4] = test system: crabgrass, Brazilian (Brazilian crabgrass, Digitaria horizontalis)
# Method in brief: as §1
# [5] = test system: crabgrass, large (large crabgrass, Digitaria sanguinalis); details: Preemergence
# Method in brief: as §1
# [6] = test system: foxtail, giant (giant foxtail, Setaria faberii); details: Preemergence
# Method in brief: as §1
# [7] = test system: foxtail, green (green foxtail, Setaria viridis); details: Preemergence
# Method in brief: as §1
# [8] = test system: goosegrass (Eleusine indica); details: Preemergence
# Method in brief: as §1
# [9] = test system: horseweed (Conyza canadensis)
# Method in brief: as §1
# kochia (Kochia scoparia) = test system: kochia (Kochia scoparia)
# Method in brief: as §1
# [10] = test system: lambsquarters (Chenopodium album); details: Preemergence
# Method in brief: as §1
# [11] = test system: nightshade (eastern black nightshade, Solanum ptycanthum); details: Preemergence
# Method in brief: as §1
# [12] = test system: panicum, fall (fall panicum, Panicum dichotomiflorum)
# Method in brief: as §1
# [13] = test system: sandbur (southem sandbur, Cenchrus echinatus)
# Method in brief: as §1
# [14] = test system: surinam grass (Brachiaria decumbens); details: Preemergence
# Method in brief: as §1
# [15] = test system: velvetleaf (Abutilon theophrasti); details: Preemergence
# Method in brief: as §1
# [16] = 62 g ai/ha, Postemergence, scale 0 to 100 (0 no effect, 100 complete control)
# [17] = 62 g ai/ha, Preemergence, scale 0 to 100 (0 no effect, 100 complete control)
# [18] = 125 g ai/ha, Postemergence, scale 0 to 100 (0 no effect, 100 complete control)
# [19] = 125 g ai/ha, Preemergence, scale 0 to 100 (0 no effect, 100 complete control)
# [20] = 250 g ai/ha, Postemergence, scale 0 to 100 (0 no effect, 100 complete control)
# [21] = Postemergence, 31 g ai/ha, visual, scale 0 no effect to 100 complete control
# [22] = Preemergence, 31 g ai/ha, scale 0 to 100, 0 no effect, 100 complete control
# [23] = Preemergence, 250 g ai/ha, visual, scale 0 no effect to 100 complete control
# [24] = 62 g ai/ha, scale 0 to 100 (0 no effect, 100 complete control)
# [25] = 125 g ai/ha, scale 0 to 100 (0 no effect, 100 complete control)
# [26] = 31 g ai/ha, scale 0 to 100, 0 no effect, 100 complete control
# [27] = 250 g ai/ha, visual, scale 0 no effect to 100 complete control
structure (smiles),measurement,setting,value
COC(=O)Oc1c(C)nn(C)c(=O)c1-c1c(C)sc2c(C)cc(C)cc12 [Compound 81],"Plant response rating, Ryegrass, Italian",[1]; [16],70
same,"Plant response rating, Ryegrass, Italian",[1]; [17],95
same,"Plant response rating, Ryegrass, Italian",[1]; [18],75
same,"Plant response rating, Ryegrass, Italian",[1]; [19],90
same,"Plant response rating, Ryegrass, Italian",[1]; [20],80
same,"Plant response rating, Ryegrass, Italian",[1]; [21],50
same,"Plant response rating, Ryegrass, Italian",[1]; [22],75
same,"Plant response rating, Ryegrass, Italian",[1]; [23],100
same,"Plant response rating, Arrowleaf Sida",[2]; [16],40
same,"Plant response rating, Arrowleaf Sida",[2]; [17],60
same,"Plant response rating, Arrowleaf Sida",[2]; [18],30
same,"Plant response rating, Arrowleaf Sida",[2]; [19],70
same,"Plant response rating, Arrowleaf Sida",[2]; [20],60
same,"Plant response rating, Arrowleaf Sida",[2]; [21],40
same,"Plant response rating, Arrowleaf Sida",[2]; [22],40
same,"Plant response rating, Arrowleaf Sida",[2]; [23],70
same,"Plant response rating, Barnyardgrass",[3]; [16],20
same,"Plant response rating, Barnyardgrass",[3]; [17],25
same,"Plant response rating, Barnyardgrass",[3]; [18],30
same,"Plant response rating, Barnyardgrass",[3]; [19],35
same,"Plant response rating, Barnyardgrass",[3]; [20],50
same,"Plant response rating, Barnyardgrass",[3]; [21],20
same,"Plant response rating, Barnyardgrass",[3]; [22],0
same,"Plant response rating, Barnyardgrass",[3]; [23],75
same,"Plant response rating, Corn",corn (Zea mays); [16],0
same,"Plant response rating, Corn",corn (Zea mays); [17],0
same,"Plant response rating, Corn",corn (Zea mays); [18],5
same,"Plant response rating, Corn",corn (Zea mays); [19],0
same,"Plant response rating, Corn",corn (Zea mays); [20],5
same,"Plant response rating, Corn",corn (Zea mays); [21],0
same,"Plant response rating, Corn",corn (Zea mays); [22],0
same,"Plant response rating, Corn",corn (Zea mays); [23],0
same,"Plant response rating, Crabgrass, Brazil",[4]; [16],40
same,"Plant response rating, Crabgrass, Brazil",[4]; [17],95
same,"Plant response rating, Crabgrass, Brazil",[4]; [18],50
same,"Plant response rating, Crabgrass, Brazil",[4]; [19],90
same,"Plant response rating, Crabgrass, Brazil",[4]; [20],50
same,"Plant response rating, Crabgrass, Brazil",[4]; [21],40
same,"Plant response rating, Crabgrass, Brazil",[4]; [22],65
same,"Plant response rating, Crabgrass, Brazil",[4]; [23],100
same,"Plant response rating, Crabgrass, Large",[5]; [24],75
same,"Plant response rating, Crabgrass, Large",[5]; [25],90
same,"Plant response rating, Crabgrass, Large",[5]; [26],50
same,"Plant response rating, Crabgrass, Large",[5]; [27],98
same,"Plant response rating, Foxtail, Giant",[6]; [24],98
same,"Plant response rating, Foxtail, Giant",[6]; [25],98
same,"Plant response rating, Foxtail, Giant",[6]; [26],75
same,"Plant response rating, Foxtail, Giant",[6]; [27],100
same,"Plant response rating, Foxtail, Green",[7]; [24],70
same,"Plant response rating, Foxtail, Green",[7]; [25],95
same,"Plant response rating, Foxtail, Green",[7]; [26],20
same,"Plant response rating, Foxtail, Green",[7]; [27],100
same,"Plant response rating, Goosegrass",[8]; [24],40
same,"Plant response rating, Goosegrass",[8]; [25],70
same,"Plant response rating, Goosegrass",[8]; [26],20
same,"Plant response rating, Goosegrass",[8]; [27],80
same,"Plant response rating, Horseweed",[9]; [16],75
same,"Plant response rating, Horseweed",[9]; [17],100
same,"Plant response rating, Horseweed",[9]; [18],65
same,"Plant response rating, Horseweed",[9]; [19],100
same,"Plant response rating, Horseweed",[9]; [20],85
same,"Plant response rating, Horseweed",[9]; [21],50
same,"Plant response rating, Horseweed",[9]; [22],90
same,"Plant response rating, Horseweed",[9]; [23],100
same,"Plant response rating, Kochia",kochia (Kochia scoparia); [16],70
same,"Plant response rating, Kochia",kochia (Kochia scoparia); [17],20
same,"Plant response rating, Kochia",kochia (Kochia scoparia); [18],70
same,"Plant response rating, Kochia",kochia (Kochia scoparia); [19],35
same,"Plant response rating, Kochia",kochia (Kochia scoparia); [20],75
same,"Plant response rating, Kochia",kochia (Kochia scoparia); [21],60
same,"Plant response rating, Kochia",kochia (Kochia scoparia); [22],0
same,"Plant response rating, Kochia",kochia (Kochia scoparia); [23],100
same,"Plant response rating, Lambsquarters",[10]; [24],100
same,"Plant response rating, Lambsquarters",[10]; [25],100
same,"Plant response rating, Lambsquarters",[10]; [26],98
same,"Plant response rating, Lambsquarters",[10]; [27],100
same,"Plant response rating, Nightshade",[11]; [24],90
same,"Plant response rating, Nightshade",[11]; [25],100
same,"Plant response rating, Nightshade",[11]; [26],80
same,"Plant response rating, Nightshade",[11]; [27],98
same,"Plant response rating, Panicum, Fall",[12]; [16],80
same,"Plant response rating, Panicum, Fall",[12]; [17],100
same,"Plant response rating, Panicum, Fall",[12]; [18],85
same,"Plant response rating, Panicum, Fall",[12]; [19],100
same,"Plant response rating, Panicum, Fall",[12]; [20],90
same,"Plant response rating, Panicum, Fall",[12]; [21],85
same,"Plant response rating, Panicum, Fall",[12]; [22],98
same,"Plant response rating, Panicum, Fall",[12]; [23],100
same,"Plant response rating, Sandbur",[13]; [17],40
same,"Plant response rating, Sandbur",[13]; [18],70
same,"Plant response rating, Sandbur",[13]; [19],70
same,"Plant response rating, Sandbur",[13]; [20],75
same,"Plant response rating, Sandbur",[13]; [21],60
same,"Plant response rating, Sandbur",[13]; [22],10
same,"Plant response rating, Sandbur",[13]; [23],90
same,"Plant response rating, Surinam Grass",[14]; [24],90
same,"Plant response rating, Surinam Grass",[14]; [25],95
same,"Plant response rating, Surinam Grass",[14]; [26],70
same,"Plant response rating, Surinam Grass",[14]; [27],95
same,"Plant response rating, Velvetleaf",[15]; [24],70
same,"Plant response rating, Velvetleaf",[15]; [25],90
same,"Plant response rating, Velvetleaf",[15]; [26],10
same,"Plant response rating, Velvetleaf",[15]; [27],95
